Experiments:
[1] = molecular target: T1, IDE (Homo sapiens, UniProt P14735); settings: cited from earlier work
T1 sequence (P14735 1-1019): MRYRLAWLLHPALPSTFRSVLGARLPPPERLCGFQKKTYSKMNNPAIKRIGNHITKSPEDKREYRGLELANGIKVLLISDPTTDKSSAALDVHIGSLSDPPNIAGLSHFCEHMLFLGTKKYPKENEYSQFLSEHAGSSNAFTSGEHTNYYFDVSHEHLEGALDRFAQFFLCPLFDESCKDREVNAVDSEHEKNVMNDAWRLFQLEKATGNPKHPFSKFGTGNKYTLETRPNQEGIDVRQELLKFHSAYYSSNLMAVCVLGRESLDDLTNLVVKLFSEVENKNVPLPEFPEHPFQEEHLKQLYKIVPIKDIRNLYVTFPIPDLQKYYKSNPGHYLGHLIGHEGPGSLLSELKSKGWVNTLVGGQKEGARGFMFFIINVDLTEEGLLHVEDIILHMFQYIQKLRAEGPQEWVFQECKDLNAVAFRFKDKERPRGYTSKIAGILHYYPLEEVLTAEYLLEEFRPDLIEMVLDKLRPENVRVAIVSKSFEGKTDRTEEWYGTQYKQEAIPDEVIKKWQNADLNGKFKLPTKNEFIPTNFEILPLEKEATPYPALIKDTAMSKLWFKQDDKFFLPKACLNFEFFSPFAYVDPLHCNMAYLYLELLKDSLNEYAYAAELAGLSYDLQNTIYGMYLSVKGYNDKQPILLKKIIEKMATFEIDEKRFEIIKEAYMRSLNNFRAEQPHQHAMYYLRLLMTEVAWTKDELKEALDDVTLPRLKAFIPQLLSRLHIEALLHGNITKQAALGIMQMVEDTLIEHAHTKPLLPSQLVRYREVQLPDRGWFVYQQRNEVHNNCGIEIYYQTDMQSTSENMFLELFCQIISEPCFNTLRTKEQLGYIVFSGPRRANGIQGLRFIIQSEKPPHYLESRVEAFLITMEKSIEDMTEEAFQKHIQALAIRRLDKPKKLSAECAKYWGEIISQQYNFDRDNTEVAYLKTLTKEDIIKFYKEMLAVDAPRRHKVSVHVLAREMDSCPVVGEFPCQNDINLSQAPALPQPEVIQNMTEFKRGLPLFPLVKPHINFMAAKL

[2] = tested on: Tysnd1; test: Protease inhibition assay: processing of Acaa1 and Acox1 by recombinant Tysnd1; type: biochemical, mouse; settings: preincubated 30 min at 25° C., then 12 h at 37° C., substrates Acaa1 and Acox1
[3] = tested on: fatty acid oxidation; settings: reference 80; cited from earlier work

SMILES	Inhibition of peroxisomal protease IDE [1]	Tysnd1 processing activity in the presence of protease inhibitor ([2]; inhibitor 1 mM)	Fatty acid oxidation [3]	other results
CC(C)C[C@H](NC(=O)[C@H]1O[C@@H]1C(=O)O)C(=O)NCCCCN=C(N)N (relative stereo) [E64, trans-epoxysuccinyl-1-leucylamido-(4-guanidino) butane]	not	–	–	Tysnd1 processing activity in the presence of protease inhibitor ([2]; inhibitor 20 μM): resistant
c1cnc2c(c1)ccc1cccnc12 [1,10-phenanthroline]	–	Partial inhibition	–	–
CCN1C(=O)C=CC1=O [NEM, N-ethylmaleimide]	inhibited	completely abolished	–	–
CC(=O)N[C@@H](CC(C)C)C(=O)N[C@@H](CC(C)C)C(=O)N[C@H](C=O)CCCNC(=N)N [leupeptin]	not	–	–	Tysnd1 processing activity in the presence of protease inhibitor ([2]; inhibitor 10 μM): resistant
COc1ccccc1OCC(O)CN1CCN(CC(=O)Nc2c(C)cccc2C)CC1 (stereo not drawn) [ranolazine]	–	–	inhibit	–
COc1ccc(CN2CCNCC2)c(OC)c1OC [trimetazidine]	–	–	inhibit	–

From US7605005B2, “Method of screening for agents that modulate Tysnd1 level or activity in a cell” (Riken, priority 2005, dated 2009)
